Measurements reported in patent US20240133870A1, “COMBINED TREATMENT FOR CANCER” (Yeda Research and Development Co. Ltd., priority 2021, published 2024).

Key:
[1] = test system: UACC62 melanoma BRAF (V600E) cell line; assay: Human and mouse factor mediated resistance to vemurafenib in vitro; type: cell-based; conditions: for factor-mediated resistance to vemurafenib: FGF2 25 ng/ml
Method: P-value of the rScore abrogation following the addition of FGFRi was calculated by two-sided t-test. ** P<0.01.

[2] = test system: BRAF (V600E) melanoma cell lines; assay: High-throughput secretome screen of GFP-labeled cells (rScore, bScore, ranks); type: cell-based, human; conditions: for effect on resistance to BRAF/MEK inhibition (rScore sorted, 297 factors): UACC62 cell line
Method: Cell lines—All cell lines (Table 1 hereinbelow) were cultured in DMEM supplemented with 100 units/ml Penicillin and Streptomycin, 2 μmM Glutamine, 1 μmM Pyruvate and 10% FCS, and maintained in a humidified incubator at 37° C. and 5% CO2. Cells were routinely tested for Mycoplasma contamination by PCR. To generate stable cell lines constitutively expressing GFP, cells were infected with lentivirus bearing plasmid pLEX_TRC206 and sorted by FACS to enrich for GFP positive population. For the in-vitro experiments, human cancer cell lines which constitutively expressed GFP were treated with various cytotoxic and targeted drugs (see Table 1 hereinbelow); and the effect of different secreted factors (Table 2 hereinbelow) on the innate resistance to a drug based on the cells' GFP level was determined.
High throughput in-vitro screens—For high-throughput screens or drug dose curves, cells were counted by Vi-Cell XR (Beckman coulter). Cells were seeded on 384 wells plates (Corning, 3712) using the EL406 washer dispenser (BioTek). Liquid handling of medium and drugs was effected by CyBi (WellFlex vario, CyBio). GFP fluorescence of cells was measured at 477/517 nm (excitation/emission) using Cytation3 (BioTek). Due to fluorescence reading bias at plate margins and corners, these margins were discarded for analysis.
High-throughput secretome screens—To screen for the effect of secreted factors on the response of cell lines to different drugs, the following seven-days procedure was performed. On day 0, GFP expressing cells were seeded at 1500-2000 cells per well on 384-wells plates (Corning, 3712), depending on the cell line's proliferation rate. Each plate was seeded with one cell line. At day 1, each plate was treated with the secretome library (Table 2 hereinabove), one well per factor. Immediately afterwards, each plate was treated either with a drug (Table 1 hereinabove) at the EC90 concentration or with DMSO control. The CyBi liquid handler was used to treat each plate with a drug and the secretome library as well as to replace the medium, drug and secreted factors following 3 days of incubation (day 4). Cell fluorescence was read at days 1, 4 and 7 by Cytation3, and for some of the experiments at day 6 as well. Wells of interest were imaged at day 7 using the Operetta (PerkinElmer).
(2) Based on observations, the plate area spanning rows 4-13 and columns 4-21 was hardly affected by plate margins biases. This area is referred to herein as plate core. To control for row specific and column specific biases, plate outliers (Zscore>4 or Zscore<−4) and edges were masked. Next, to capture row and column (col) biases for the i-th row and the j-th column, the bias factor was calculated:
Upon QC completion, 199 experiment plates and 79 control (DMSO) plates were left for further analysis. • 4—Scoring methods-A GFP value for wells without secretome factors was obtained by averaging over the plate internal control wells. Those wells contained the solvents used in the secretome library. pScore: The effect of the secreted factors on proliferation under DMSO was evaluated using pScore (proliferation score). Values were given in percent units.
rScore: The effect of the secreted factors on resistance to anti-cancer drugs was evaluated using rScore (rescue score). rScore was assigned to a given factor under two conditions: • 1. drug effect was >30% (residual drug growth<0.7) • 2. proliferation ratio between factor treated and untreated cells in the presence of drug was higher than one:
rSscore=S−S*residual drug growth
Based on manual inspection of the rScore distribution across the data, the threshold for a potential effect on drug resistance was set to 0.2 (FIGS. 8A-D).
(*) Negative values were considered as zero. […] Groups with less than 4 experiments were discarded, finally resulting in 13 groups of experiments (FIG. 1E). […]

[3] = test system: human NSCLC tumor biopsy; assay: EVOC of NSCLC patient biopsies, viability; type: cell-based; conditions: treatment-naïve patient; osimertinib 4 μM alone
Description: Error bars represent standard error. […] Scale bar represents 50 μm. […] Error bars represent standard error. […] Scale bar represents 50 μm.
Scale bar represents 50 μm. […] Scale bar represents 50 μm. […] Scale bar represents 50 μm.

[4] = test system: SK-MEL-5 BRAF (V600E) melanoma cells; assay: Co-culture of stroma (WI-38 or HS-5) and cancer cells; type: cell-based, human
Method: SK-MEL-5 BRAF (V600E) melanoma cells were co-cultured with the lung-derived stromal cell line WI-38 or with the bone marrow-derived stromal cell line HS-5 with or without vemurafenib (4 μM). […] Vehicle—DMSO, EGFRi—gefitinib (0.1 μM), EGFRi/HER2i—lapatinib (10 nM), METi—crizotinib (0.1 μM), FGFRi—AZD4547 (50 nM), NFkB/TNFRi—CAPE (10 μM), TGFBRi-LY2109761 (0.5 μM), gp130i—SC144 (1 nM). […] Error bars represent standard error. […] Error bars represent standard error. […] Human BRAF (V600E) melanoma cell lines UACC62 or G361 were used to generate xenograft tumor models in various tissues of nude mice. When tumors reached a volume of 500-700 μmm^3, they were resected, sliced, and cultured ex-vivo in the presence of different drug combinations or DMSO control. Following 4 days of drug treatment, slices were fixed, embedded in paraffin blocks, and subjected to immunohistochemistry, using anti-pERK antibody, or to immuno-fluorescence, using anti-pFGFR1 antibody. BRAFi (vemurafenib, 4 μM), FGFRi (AZD4547, 2 μM). Scale bar represents 50 μm.
Four hours later, the melanoma BRAF (V600E) mutated cell line SK-MEL-5 was seeded on top of the stromal cells at a concentration of 1700 cells per well, or seeded without stroma. […] Concentrations of the inhibitors were based on dose curves with SK-MEL-5. For each inhibitor of potential mechanism of resistance, the maximal concentration with minimal effect (toxicity) on cell growth was selected (Cmax).
To compare rScore value of stroma-mediated resistance with or without a given inhibitor, the rScore values of each inhibitor in the presence of stroma, was calculated. As a reduction in rScore may stem from mere toxicity of the inhibitor, rather than the abrogation of the stroma mediated resistance, each inhibitor rScore was penalized by its toxicity.
rScoreinhibitor=rScoreinhibitor+(rScorestroma−rScoreinhibitor)*tOxicitY(Cmax)inhibitor

[5] = vemurafenib 2 μM, mTNF 50 ng/ml
[6] = 80 experiments of BRAF (V600E) mutated melanoma cell lines treated with BRAF/MEK inhibitors
[7] = 80 experiments of BRAF (V600E) mutated melanoma cell lines treated with BRAF/MEK inhibitors, in multiple experiments

Molecule: FGF2: human FGF2, recombinant secreted factor, FGFR ligand
- factor-mediated resistance to vemurafenib [1, 5]: mediated resistance to vemurafenib
- rank by rScore values (resistance) [2, 6]: 3
- rScore [2, 7]: above 0.2
- effect on resistance to BRAF/MEK inhibition (rScore sorted, 297 factors) [2]: strongest effect on resistance

Molecule: FC(F)(F)c1nnc2c(Sc3ccccc3)nc3ccc(Cl)cc3n12 [R7050, reference compound]
- toxicity to UACC62 ([1]; all concentrations tested): not toxic
- abrogation of mouse TNF mediated resistance ([1]; vemurafenib 2 μM, mTNF 50 ng/ml, range of concentrations): does not abrogate the mouse TNF mediated resistance

Molecule: C=CC(=O)Nc1cc(Nc2nccc(-c3cn(C)c4ccccc34)n2)c(OC)cc1N(C)CCN(C)C [osimertinib]
- cancer cell viability [3]: did not affect cancer cell viability

Molecule: CCCS(=O)(=O)Nc1ccc(F)c(C(=O)c2c[nH]c3ncc(-c4ccc(Cl)cc4)cc23)c1F [vemurafenib]
- rScore of stroma-conferred resistance ([4]; co-culture with bone-marrow derived stromal cell line HS-5): > 0.2
- rScore of stroma-conferred resistance ([4]; co-culture with lung-derived stromal cell line WI-38): > 0.2

B1: ACHE: acetylcholinesterase (protein, UniProt P22303 32-614, looked up)
Acetylcholinesterase: EGREDAELLVTVRGGRLRGIRLKTPGGPVSAFLGIPFAEPPMGPRRFLPPEPKQPWSGVVDATTFQSVCYQYVDTLYPGFEGTEMWNPNRELSEDCLYLNVWTPYPRPTSPTPVLVWIYGGGFYSGASSLDVYDGRFLVQAERTVLVSMNYRVGAFGFLALPGSREAPGNVGLLDQRLALQWVQENVAAFGGDPTSVTLFGESAGAASVGMHLLSPPSRGLFHRAVLQSGAPNGPWATVGMGEARRRATQLAHLVGCPPGGTGGNDTELVACLRTRPAQVLVNHEWHVLPQESVFRFSFVPVVDGDFLSDTPEALINAGDFHGLQVLVGVVKDEGSYFLVYGAPGFSKDNESLISRAEFLAGVRVGVPQVSDLAAEAVVLHYTDWLHPEDPARLREALSDVVGDHNVVCPVAQLAGRLAAQGARVYAYVFEHRASTLSWPLWMGVPHGYEIEFIFGIPLDPSRNYTAEEKIFAQRLMRYWANFARTGDPNEPRDPKAPQWPPYTAGAQQYVSLDLRPLEVRRGLRAQACAFWNRFLPKLLSATDTLDEAERQWKAEFHRWSSYMVHWKNQFDHYSKQDRCSDL
- synergism with BRAF and MEK inhibition ([2]; multiple melanoma cell lines): synergistic effect

B2: LTA: lymphotoxin alpha (protein, UniProt P01374 35-205, looked up)
Lymphotoxin-alpha: LPGVGLTPSAAQTARQHPKMHLAHSTLKPAAHLIGDPSKQNSLLWRANTDRAFLQDGFSLSNNSLLVPTSGIYFVYSQVVFSGKAYSPKATSSPLYLAHEVQLFSSQYPFHVPLLSSQKMVYPGLQEPWLHSMYHGAAFQLTQGDQLSTHTDGIPHLVLSPSTVFFGAFAL
- effect on resistance to BRAF/MEK inhibition (rScore sorted, 297 factors) [2]: strongest effect on resistance

B3: IL1A: secreted factor of the secretome library (protein, UniProt P01583 113-271, looked up)
Interleukin-1 alpha: SAPFSFLSNVKYNFMRIIKYEFILNDALNQSIIRANDQYLTAAALHNLDEAVKFDMGAYKSSKDDAKITVILRISKTQLYVTAQDEDQPVLLKEMPEIPKTITGSETNLLFFWETHGTKNYFTSVAHPNLFIATKQDYWVCLAGGPPSITDFQILENQA
- effect on resistance to BRAF/MEK inhibition (rScore sorted, 297 factors) [2]: strongest effect on resistance

B4: CCL4: secreted factor of the secretome library (protein, UniProt P13236 24-92, looked up)
C-C motif chemokine 4: APMGSDPPTACCFSYTARKLPRNFVVDYYETSSLCSQPAVVFQTKRSKQVCADPSESWVQEYVYDLELN
- effect on resistance to BRAF/MEK inhibition (rScore sorted, 297 factors) [2]: strongest effect on resistance

B5: TGFB3: Transforming Growth Factor Beta 3 (protein, UniProt P10600 301-412, looked up)
Transforming growth factor …: ALDTNYCFRNLEENCCVRPLYIDFRQDLGWKWVHEPKGYYANFCSGPCPYLRSADTTHSTVLGLYNTLNPEASASPCCVPQDLEPLTILYYVGRTPKVEQLSNMVVKSCKCS
- rank by bScore values (synergism) [2, 6]: −3
- bScore [2, 7]: below −0.15

B6: mFGF2: mouse FGF2 (protein, UniProt P15655 10-154, looked up)
Fibroblast growth factor 2: PALPEDGGAAFPPGHFKDPKRLYCKNGGFFLRIHPDGRVDGVREKSDPHVKLQLQAEERGVVSIKGVCANRYLAMKEDGRLLASKCVTEECFFFERLESNNYNTYRSRKYSSWYVALKRTGQYKLGSKTGPGQKAILFLPMSAKS
- factor-mediated resistance to vemurafenib [1, 5]: mediated resistance to vemurafenib
